Experimental data taken from patent publication US20200405696A1, “INHIBITORS OF INDOLEAMINE 2,3-DIOXYGENASE AND/OR TRYPTOPHAN 2,3-DIOXYGENASE” (IDORSIA PHARMACEUTICALS LTD, priority 2018, published 2020).

Assays:
[1] = molecular target: T1, Recombinant human TDO comprising amino acids 19-407 (Homo sapiens, UniProt P48775); test: TDO2 enzymatic assay (NFK quantified by LCMS); assay type: biochemical; details: 15 nM enzyme, 200 μM L-tryptophan, pH7, 30 minutes pre-incubation at RT; mean values when measured multiple times; read-out: hTDO activity (IC50 in nM)
T1 construct: Recombinant human TDO comprising amino acids 19-407 with a N-terminal hexahistidine tag; hexahistidine (His6) (N); made in house; host or cells: E. coli
T1 sequence (P48775 19-406 limits assumed): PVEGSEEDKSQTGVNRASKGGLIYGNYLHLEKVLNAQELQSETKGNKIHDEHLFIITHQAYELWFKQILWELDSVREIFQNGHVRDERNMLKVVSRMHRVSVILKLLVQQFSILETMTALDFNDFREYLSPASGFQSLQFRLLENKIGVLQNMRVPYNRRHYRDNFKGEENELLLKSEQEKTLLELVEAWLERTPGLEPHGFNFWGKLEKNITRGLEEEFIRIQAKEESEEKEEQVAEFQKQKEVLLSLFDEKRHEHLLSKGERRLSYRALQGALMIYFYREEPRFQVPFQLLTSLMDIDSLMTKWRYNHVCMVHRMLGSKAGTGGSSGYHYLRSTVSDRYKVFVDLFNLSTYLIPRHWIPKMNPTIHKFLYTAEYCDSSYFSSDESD
Method in brief: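 NFK formed over 30 min at RT from 200 μM L-tryptophan was measured by LCMS, normalized to d5-tryptophan, after compound (0.5 nM–10 μM, duplicates, 0.6% DMSO) was preincubated 30 min with 15 nM recombinant His-tagged TDO 19-407 in phosphate buffer pH 7. IC50 from four-parameter logistic fit; repeats averaged.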

[2] = molecular target: T2, Recombinant full-length human IDO1 (Homo sapiens, UniProt P14902); test: IDO1 enzymatic assay (NFK quantified by LCMS); assay type: biochemical; details: 2 nM enzyme, 5 μM L-tryptophan, pH6.5, 30 minutes pre-incubation at RT; mean values when measured multiple times; read-out: hIDO activity (IC50 in nM)
T2 construct: Recombinant full-length human IDO1 with a N-terminal hexahistidine tag; hexahistidine (His6) (N); made in house; host or cells: E. coli
T2 sequence (P14902 whole entry): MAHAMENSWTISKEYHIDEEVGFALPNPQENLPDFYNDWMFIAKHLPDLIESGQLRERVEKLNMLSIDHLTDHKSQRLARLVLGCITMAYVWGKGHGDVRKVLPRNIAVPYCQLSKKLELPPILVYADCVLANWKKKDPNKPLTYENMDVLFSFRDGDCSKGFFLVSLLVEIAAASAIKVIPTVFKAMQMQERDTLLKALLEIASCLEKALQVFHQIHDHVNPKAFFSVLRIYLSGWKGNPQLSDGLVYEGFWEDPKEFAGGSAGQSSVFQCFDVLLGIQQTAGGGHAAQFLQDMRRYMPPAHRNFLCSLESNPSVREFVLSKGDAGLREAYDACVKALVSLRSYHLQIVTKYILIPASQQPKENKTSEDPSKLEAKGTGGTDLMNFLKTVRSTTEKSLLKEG
Method in brief: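 IC50 comes from four-parameter logistic fits of duplicate data, with NFK quantified by LCMS and normalized to L-Trp-(indole-d5). Compound (0.5 nM–10 μM) was preincubated 30 min at RT with 2 nM E. coli-expressed IDO1 before a 30 min reaction with 5 μM tryptophan in pH 6.5 buffer containing ascorbate and methylene blue.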

IC50 [1] | IC50 [2] | Structure (SMILES)
> 10200 nM | 7.77 nM | OC(c1cn(-c2ccc(OCC3(F)COC3)cc2)nn1)c1c(C2CC2)sc2cncn12 (racemic) [Example 145, rac-(2-Cyclopropyl-imidazo[5,1-b]thiazol-3-yl)-{1-[4-(3-fluoro-oxetan-3-ylmethoxy)-phenyl]-1H-[1,2,3]triazol-4-yl}-methanol]
> 10200 nM | 12.9 nM | O=S1(=O)CCC(COc2ccc(-n3cc(C(O)c4c(C5CC5)sc5cncn45)nn3)cc2)CC1 (racemic) [Example 147, rac-(2-Cyclopropyl-imidazo[5,1-b]thiazol-3-yl)-{1-[4-(1,1-dioxo-hexahydro-1I6-thiopyran-4-ylmethoxy)-phenyl]-1H-[1,2,3]triazol-4-yl}-methanol]
5130 nM | 4.31 nM | Oc1ccc(-n2cc(C(O)c3c(C4CC4)sc4cncn34)nn2)cc1Cl (racemic) [Example 148, rac-2-Chloro-4-{4-[(2-cyclopropyl-imidazo[5,1-b]thiazol-3-yl)-hydroxy-methyl]-[1,2,3]triazol-1-yl}-phenol]
> 10200 nM | 3.8 nM | Oc1c(F)cc(-n2cc(C(O)c3c(C4CC4)sc4cncn34)nn2)cc1F (racemic) [Example 149, rac-4-{4-[(2-Cyclopropyl-imidazo[5,1-b]thiazol-3-yl)-hydroxy-methyl]-[1,2,3]triazol-1-yl}-2,6-difluoro-phenol]
9290 nM | 4.83 nM | Oc1ccc(-n2cc(C(O)c3c(C4CC4)sc4cncn34)nn2)cc1F (racemic) [Example 150, rac-4-{4-[(2-Cyclopropyl-imidazo[5,1-b]thiazol-3-yl)-hydroxy-methyl]-[1,2,3]triazol-1-yl}-2-fluoro-phenol]
> 10200 nM | 55.8 nM | CC(C)(C)OC(=O)Nc1ccc(-n2cc(C(O)c3c(C4CC4)sc4cncn34)nn2)c(F)c1 (racemic) [Example 151, rac-(4-{4-[(2-Cyclopropyl-imidazo[5,1-b]thiazol-3-yl)-hydroxy-methyl]-[1,2,3]triazol-1-yl}-3-fluoro-phenyl)-carbamic Acid Tert-Butyl Ester]
> 10200 nM | 184 nM | OC(c1ccc(-c2ccccc2)cc1)c1c(C2CC2)sc2cncn12 (racemic) [Example 152, rac-Biphenyl-4-yl-(2-cyclopropyl-imidazo[5,1-b]thiazol-3-yl)-methanol]
> 10200 nM | 2320 nM | OC(c1cccc(-c2ccccc2)c1)c1c(C2CC2)sc2cncn12 (racemic) [Example 153, rac-Biphenyl-3-yl-(2-cyclopropyl-imidazo[5,1-b]thiazol-3-yl)-methanol]
7270 nM | 366 nM | Cc1sc2cncn2c1C(O)c1ccc(-c2ccccc2)s1 (racemic) [Example 154, rac-(2-Methyl-imidazo[5,1-b]thiazol-3-yl)-(5-phenyl-thiophen-2-yl)-methanol]
> 10200 nM | 734 nM | Cc1sc2cncn2c1C(O)c1cnc(-c2ccccc2)s1 (racemic) [Example 155, rac-(2-Methyl-imidazo[5,1-b]thiazol-3-yl)-(2-phenyl-thiazol-5-yl)-methanol]
> 10200 nM | 406 nM | Cc1sc2cncn2c1C(O)c1cc(-c2ccccc2)no1 (racemic) [Example 156, rac-(2-Methyl-imidazo[5,1-b]thiazol-3-yl)-(3-phenyl-isoxazol-5-yl)-methanol]
> 10200 nM | 586 nM | OC(c1nnc(-c2ccccc2)o1)c1c(C2CC2)sc2cncn12 (racemic) [Example 157, rac-(2-Cyclopropyl-imidazo[5,1-b]thiazol-3-yl)-(5-phenyl-[1,3,4]oxadiazol-2-yl)-methanol]
5440 nM | 466 nM | OC(c1cnn(-c2ccccc2)n1)c1c(C2CC2)sc2cncn12 (racemic) [Example 158, rac-(2-Cyclopropyl-imidazo[5,1-b]thiazol-3-yl)-(2-phenyl-2H-[1,2,3]triazol-4-yl)-methanol]
8310 nM | 238 nM | N#Cc1cccc(-c2ccc(C(O)c3c(C4CC4)sc4cncn34)s2)c1 (racemic) [Example 159, rac-3-{5-[(2-Cyclopropyl-imidazo[5,1-b]thiazol-3-yl)-hydroxy-methyl]-thiophen-2-yl}-benzonitrile]
5320 nM | 230 nM | OC(c1ccc(-c2cccnc2)s1)c1c(C2CC2)sc2cncn12 (racemic) [Example 160, rac-(2-Cyclopropyl-imidazo[5,1-b]thiazol-3-yl)-(5-pyridin-3-yl-thiophen-2-yl)-methanol]
> 10200 nM | 257 nM | COc1ccc(-c2ccc(C(O)c3c(C4CC4)sc4cncn34)s2)cc1 (racemic) [Example 161, rac-(2-Cyclopropyl-imidazo[5,1-b]thiazol-3-yl)-[5-(4-methoxy-phenyl)-thiophen-2-yl]-methanol]

IC50 [1] | IC50 [2] | Structure (SMILES)
> 10200 nM | 1250 nM | OC(c1ccc(-c2ccc(C(F)(F)F)cc2)s1)c1c(C2CC2)sc2cncn12 (racemic) [Example 162, rac-(2-Cyclopropyl-imidazo[5,1-b]thiazol-3-yl)-[5-(4-trifluoromethyl-phenyl)-thiophen-2-yl]-methanol]
> 10200 nM | 496 nM | OC(c1nc(-c2ccccc2)no1)c1c(C2CC2)sc2cncn12 (racemic) [Example 163, rac-(2-Cyclopropyl-imidazo[5,1-b]thiazol-3-yl)-(3-phenyl-[1,2,4]oxadiazol-5-yl)-methanol]
> 10200 nM | 317 nM | OC(c1ccc(-c2ccccc2)s1)c1c(C2CC2)sc2cncn12 (racemic) [Example 164, rac-(2-Cyclopropyl-imidazo[5,1-b]thiazol-3-yl)-(5-phenyl-thiophen-2-yl)-methanol]
> 10200 nM | 716 nM | OC(c1ccc(-c2cccc(C(F)(F)F)c2)s1)c1c(C2CC2)sc2cncn12 (racemic) [Example 165, rac-(2-Cyclopropyl-imidazo[5,1-b]thiazol-3-yl)-[5-(3-trifluoromethyl-phenyl)-thiophen-2-yl]-methanol]
> 10200 nM | 587 nM | COc1ccccc1-c1ccc(C(O)c2c(C3CC3)sc3cncn23)s1 (racemic) [Example 166, rac-(2-Cyclopropyl-imidazo[5,1-b]thiazol-3-yl)-[5-(2-methoxy-phenyl)-thiophen-2-yl]-methanol]
> 10200 nM | 639 nM | COc1cccc(-c2ccc(C(O)c3c(C4CC4)sc4cncn34)s2)c1 (racemic) [Example 167, rac-(2-Cyclopropyl-imidazo[5,1-b]thiazol-3-yl)-[5-(3-methoxy-phenyl)-thiophen-2-yl]-methanol]
1060 nM | 189 nM | OC(c1ccc(-c2ccncc2)s1)c1c(C2CC2)sc2cncn12 (racemic) [Example 168, rac-(2-Cyclopropyl-imidazo[5,1-b]thiazol-3-yl)-(5-pyridin-4-yl-thiophen-2-yl)-methanol]
2940 nM | 60 nM | Cn1nccc1-c1ccc(C(O)c2c(C3CC3)sc3cncn23)s1 (racemic) [Example 169, rac-(2-Cyclopropyl-imidazo[5,1-b]thiazol-3-yl)-[5-(2-methyl-2H-pyrazol-3-yl)-thiophen-2-yl]-methanol]
3820 nM | 550 nM | OC(c1ccc(-c2ccccc2C(F)(F)F)s1)c1c(C2CC2)sc2cncn12 (racemic) [Example 170, rac-(2-Cyclopropyl-imidazo[5,1-b]thiazol-3-yl)-[5-(2-trifluoromethyl-phenyl)-thiophen-2-yl]-methanol]
> 10200 nM | 578 nM | OC(c1ncc(-c2ccccc2)s1)c1c(C2CC2)sc2cncn12 (racemic) [Example 171, rac-(2-Cyclopropyl-imidazo[5,1-b]thiazol-3-yl)-(5-phenyl-thiazol-2-yl)-methanol]
4080 nM | 272 nM | N#Cc1ccccc1-c1ccc(C(O)c2c(C3CC3)sc3cncn23)s1 (racemic) [Example 172, rac-2-{5-[(2-Cyclopropyl-imidazo[5,1-b]thiazol-3-yl)-hydroxy-methyl]-thiophen-2-yl}-benzonitrile]
> 10200 nM | 732 nM | N#Cc1ccc(-c2ccc(C(O)c3c(C4CC4)sc4cncn34)s2)cc1 (racemic) [Example 173, rac-4-{5-[(2-Cyclopropyl-imidazo[5,1-b]thiazol-3-yl)-hydroxy-methyl]-thiophen-2-yl}-benzonitrile]
7710 nM | 279 nM | Cn1nncc1-c1ccc(C(O)c2c(C3CC3)sc3cncn23)s1 (racemic) [Example 174, rac-(2-Cyclopropyl-imidazo[5,1-b]thiazol-3-yl)-[5-(3-methyl-3H-[1,2,3]triazol-4-yl)-thiophen-2-yl]-methanol]
> 10200 nM | 122 nM | OC(c1nnc(-c2ccccc2)s1)c1c(C2CC2)sc2cncn12 (racemic) [Example 175, rac-(2-Cyclopropyl-imidazo[5,1-b]thiazol-3-yl)-(5-phenyl-[1,3,4]thiadiazol-2-yl)-methanol]
> 10200 nM | 260 nM | OC(c1ccc(-c2ccc3[nH]ccc3c2)s1)c1c(C2CC2)sc2cncn12 (racemic) [Example 176, rac-(2-Cyclopropyl-imidazo[5,1-b]thiazol-3-yl)-[5-(1H-indol-5-yl)-thiophen-2-yl]-methanol]
